The test system of data set [1] is HELAN = sunflower (Helainthus annuus). Put plainly: General postemergence herbicidal activity, sunflower. Particulars: post-emergence, 336 h; post-emergent, 140 g ai/ha, visual score after 14 days (0 no injury, 100 complete kill). Type of data set: in vivo. The procedure: (§1) Seeds or nutlets of the desired test plant species were planted in Sun Gro MetroMix® 306 planting mixture, which typically has a pH of 6.0 to 6.8 and an organic matter content of about 30 percent, in plastic pots with a surface area of 64 square centimeters. When required to ensure good germination and healthy plants, a fungicide treatment and/or other chemical or physical treatment was applied. The plants were grown for 7-21 days in a greenhouse with an approximate 15 hour photoperiod which was maintained at about 23-29° C. during the day and 22-28° C. during the night. Nutrients and water were added on a regular basis and supplemental lighting was provided with overhead metal halide 1000-Watt lamps as necessary. The plants were employed for testing when they reached the first or second true leaf stage.
(§2) A weighed amount, determined by the highest rate to be tested, of each test compound was placed in a 25 mL glass vial and was dissolved in 4 mL of a 97:3 v/v (volume/volume) mixture of acetone and dimethyl sulfoxide (DMSO) to obtain concentrated stock solutions. […] The concentrated stock solutions obtained were diluted with 20 mL of an aqueous mixture containing acetone, water, isopropyl alcohol, DMSO, Atplus 411F crop oil concentrate, and Triton X-155 surfactant in a 48.5:39:10:1.5:1.0:0.02 v/v ratio to obtain spray solutions containing the highest application rates. Additional application rates were obtained by serial dilution of 12 mL of the high rate solution into a solution containing 2 mL of 97:3 v/v (volume/volume) mixture of acetone and dimethyl sulfoxide (DMSO) and 10 mL of an aqueous mixture containing acetone, water, isopropyl alcohol, DMSO, Atplus 411F crop oil concentrate, and Triton X-155 surfactant in a 48.5:39:10:1.5:1.0:0.02 v/v ratio to obtain ½×, ¼×, ⅛× and 1/16× rates of the high rate. Compound requirements are based upon a 12 mL application volume at a rate of 187 L/ha. Formulated compounds were applied to the plant material with an overhead Mandel track sprayer equipped with a 8002E nozzles calibrated to deliver 187 L/ha over an application area of 0.503 square meters at a spray height of 18 inches (43 cm) above the average plant canopy height. Control plants were sprayed in the same manner with the solvent blank.
(§3) The treated plants and control plants were placed in a greenhouse as described above and watered by sub-irrigation to prevent wash-off of the test compounds. After 14 days, the condition of the test plants as compared with that of the untreated plants was determined visually and scored on a scale of 0 to 100 percent where 0 corresponds to no injury and 100 corresponds to complete kill.
(§4) By applying the well-accepted probit analysis as described by J. Berkson in Journal of the […], 48, 565 (1953) and by D. Finney in “Probit Analysis” Cambridge University Press (1952), the above data can be used to calculate GR50 and GR80 values, which are defined as growth reduction factors that correspond to the effective dose of herbicide required to kill or control 50 percent or 80 percent, respectively, of a target plant.

For data set [2], the system named is ABUTH = velvetleaf (Abutilon theophrasti). In words: General preemergence herbicidal activity, velvetleaf. Type of data set: in vivo. Particulars: Abutilon theophrasti, pre-emergence, 480 h, pre-emergent, visual score after 20-22 days. The text has this: (§5) Seeds of the desired test plant species were planted in a soil matrix prepared by mixing a loam soil (43 percent silt, 19 percent clay, and 38 percent sand, with a pH of about 8.1 and an organic matter content of about 1.5 percent) and sand in a 70 to 30 ratio. The soil matrix was contained in plastic pots with a surface area of 113 square centimeters. When required to ensure good germination and healthy plants, a fungicide treatment and/or other chemical or physical treatment was applied. A weighed amount, determined by the highest rate to be tested, of each test compound was placed in a 25 mL glass vial and was dissolved in 6 mL of a 97:3 v/v (volume/volume) mixture of acetone and DMSO to obtain concentrated stock solutions. […] The stock solutions obtained were diluted with 18 mL of a 0.1% v/v aqueous solution of Tween® 20 surfactant to obtain spray solutions containing the highest application rate. Additional application rates were obtained by serial dilution of 12 mL of the high rate solution into a solution containing 3 mL of 97:3 v/v mixture of acetone and DMSO and 9 mL of the 0.1% v/v aqueous solution of Tween® 20 surfactant to obtain 1⁄2×, 1⁄4×, 1⁄8× and 1/16× rates of the high rate. Compound requirements are based upon a 12 mL application volume at a rate of 187 L/ha. Formulated compounds were applied to the plant material with an overhead Mandel track sprayer equipped with a […] nozzles calibrated to deliver 187 L/ha over an application area of 0.503 square meters at a spray height of 18 inches (43 cm) above the soil surface. Control plants were sprayed in the same manner with the solvent blank. The treated pots and control pots were placed in a greenhouse maintained with an approximate 15 hour photoperiod and temperatures of about 23-29° C. during the day and 22-28° C. during the night. Nutrients and water were added on a regular basis and supplemental lighting was provided with overhead metal halide 1000-Watt lamps as necessary. The water was added by top-irrigation. After 20-22 days, the condition of the test plants that germinated and grew as compared with that of the untreated plants that emerged and grew was determined visually and scored on a scale of 0 to 100 percent where 0 corresponds to no injury and 100 corresponds to complete kill or no emergence.

The subject of data set [3] is CHEAL = lambsquarter (Chenopodium album). Put plainly: General preemergence herbicidal activity, lambsquarter. The format is in vivo. The settings on record: Chenopodium album, pre-emergence, 480 h, pre-emergent, visual score after 20-22 days.
Source text: as §5

The subject of data set [4] is HELAN = sunflower (Helianthus annuus). In words: General preemergence herbicidal activity, sunflower. The format is in vivo. Particulars: Helianthus annuus, pre-emergence, 480 h, pre-emergent, visual score after 20-22 days.
Source text: as §5

Data set [5] relates to CHEAL = lambsquarter (Chenopodium album). Put plainly: General postemergence herbicidal activity, lambsquarter. Type of data set: in vivo. Particulars: Chenopodium album, post-emergence, 336 h; post-emergent, 140 g ai/ha, visual score after 14 days (0 no injury, 100 complete kill). The procedure:
as §1, §2, §3, §4

For data set [6], the system named is ABUTH = velvetleaf (Abutilon theophrasti). Put plainly: General postemergence herbicidal activity, velvetleaf. Type of data set: in vivo. The settings on record: Abutilon theophrasti, post-emergence, 336 h; post-emergent, 140 g ai/ha, visual score after 14 days (0 no injury, 100 complete kill). How it is done:
as §1, §2, §3, §4

SMILES strings stand for the structures.

As usually defined, the pest or weed control is how far the test organism was held down. Usually melting point stands for the temperature of the solid-liquid transition. For the compound `COc1c(Cl)ccc(-c2nc(N)c(Cl)c(C(=O)O)n2)c1F` [Compound 15, 6-amino-5-chloro-2-(4-chloro-2-fluoro-3-methoxyphenyl)-pyrimidine-4-carboxylic acid], the melting point lay in the range of 172 to 173 °C. The compound further returned a pest or weed control at 140 g/ha in data set [1] of 100%. Further, the pest or weed control at 140 g/ha in data set [2] (140 g ai/ha) stood at 100%. For the same compound, in data set [3] (140 g ai/ha), the pest or weed control at 140 g/ha was 100%. In data set [4] (140 g ai/ha), this compound came in with a pest or weed control at 140 g/ha of 100%. In data set [5], this compound registered a pest or weed control at 140 g/ha of 100%. This compound yielded a pest or weed control at 140 g/ha in data set [6] of 100%.

Compound `CCOc1c(Cl)ccc(-c2nc(N)c(Cl)c(C(=O)O)n2)c1F` [Compound 19, 6-Amino-5-chloro-2-(4-chloro-3-ethoxy-2-fluorophenyl)pyrimidine-4-carboxylic acid] yielded a melting point of 132 to 134 °C. For the same compound, in data set [1], the pest or weed control at 140 g/ha worked out at 95%. The pest or weed control at 280 g/ha in data set [2] (280 g ai/ha) turned out to be 80%. The pest or weed control at 280 g/ha in data set [3] (280 g ai/ha) came out at 75%. The pest or weed control at 280 g/ha in data set [4] (280 g ai/ha) amounted to 90%. This compound also came in with a pest or weed control at 140 g/ha in data set [5] of 90%. For the same compound, in data set [6], the pest or weed control at 140 g/ha turned out to be 95%.

Source of the values: patent US9199943B2, “2-(poly-substituted aryl)-6-amino-5-halo-4-pyrimidinecarboxylic acids and their use as herbicides” (Dow AgroSciences, LLC., priority 2006, dated 2015).
